Experimental findings from patent publication US20120022261A1, “Colorant Compositions Containing an Oxonol Dye” (priority 2005, published 2012) are described below.

The structures appear in SMILES notation.

Data set [1] can be described thus: Solubility in organic solvents (EtOH, MEK). To be noted: for Solubility (g/l) EtOH: solvent EtOH; for Solubility (g/l) MEK: solvent MEK (methylethyl ketone). The format is physicochemical.
Data set [2] is described as follows: 50° C. test (storage at 50° C. over 18 hours in a hot-air cabinet). The data set is classed as physicochemical. Set-up: key: A positive test result indicates that the product still exists in a solid and powdery state after the heat treatment; If the product undergoes a sintering process and/or starts to melt at this temperature, the test result is classified as negative. To be noted: solid product stored at 50° C. for 18 hours in a hot-air cabinet. The protocol:
The 50° C. test involves storing the product to be tested at 50° C. over a period of 18 hours in a hot-air cabinet. […] If the product undergoes a sintering process and/or starts to melt at this temperature, the test result is classified as negative.

Take `CCCC[N+](CCCC)(CCCC)CCCC.CCN1C(=O)C(=CC=Cc2c(C)c(C#N)c(=O)n(CC)c2[O-])C(C)=C(C#N)C1=O` [ethyl, ethyl, tetrabutyl-ammonium]: in data set [1], the “Solubility (g/l) EtOH” value was 5.6 g/L and the “Solubility (g/l) MEK” value amounted to 63.2 g/L. Moreover, in data set [2], the “50° C. Test” value is recorded as “positive”.
In the same order, the values of `CC1=C(C#N)C(=O)N(CCCOC(C)C)C(=O)C1=CC=Cc1c(C)c(C#N)c(=O)n(C)c1[O-].CCCC[N+](CCCC)(CCCC)CCCC` [reference compound] are 21.3 g/L, 28.5 g/L and “negative”.
In the same order, the values of `CCCCN1C(=O)C(=CC=Cc2c(C)c(C#N)c(=O)n(CCCC)c2[O-])C(C)=C(C#N)C1=O.CCCC[N+](CCCC)(CCCC)CCCC` [n-butyl, n-butyl, tetrabutyl-ammonium] are 35.5 g/L, 98 g/L and “positive”.
In the same order, the values of `CCCC[N+](CCCC)(CCCC)CCCC.CCCCn1c([O-])c(C=CC=C2C(=O)N(CC)C(=O)C(C#N)=C2C)c(C)c(C#N)c1=O` [ethyl, n-butyl, tetrabutyl-ammonium] are 14.3 g/L, 41.4 g/L and “positive”.
With `CCCC[N+](CCCC)(CCCC)CCCC.CCCCn1c([O-])c(C=CC=C2C(=O)N(CCCOC(C)C)C(=O)C(C#N)=C2C)c(C)c(C#N)c1=O` [reference compound], in data set [1], the “Solubility (g/l) EtOH” value amounted to 197 g/L and the “Solubility (g/l) MEK” value came out at 339 g/L. Moreover, in data set [2], the “50° C. Test” value is reported as “negative”.
In the same order, the values of `CCCCCN1C(=O)C(=CC=Cc2c(C)c(C#N)c(=O)n(CCCCC)c2[O-])C(C)=C(C#N)C1=O.CCCC[N+](CCCC)(CCCC)CCCC` [n-pentyl, n-pentyl, tetrabutyl-ammonium] are 50 g/L, 380 g/L and “positive”.
In the same order, the values of `CCCC[N+](CCCC)(CCCC)CCCC.CCCN1C(=O)C(=CC=Cc2c(C)c(C#N)c(=O)n(CCC)c2[O-])C(C)=C(C#N)C1=O` [n-propyl, n-propyl, tetrabutyl-ammonium] are 14 g/L, 69 g/L and “positive”.
As for `CC1=C(C#N)C(=O)N(CC(C)C)C(=O)C1=CC=Cc1c(C)c(C#N)c(=O)n(CC(C)C)c1[O-].CCCC[N+](CCCC)(CCCC)CCCC`, in data set [1], the “Solubility (g/l) EtOH” value was determined as 4 g/L and the “Solubility (g/l) MEK” value is 56.2 g/L. In addition, the “50° C. Test” value in data set [2] was “positive”.
The like results for `CCCC[N+](CCCC)(CCCC)CCCC.CCn1c([O-])c(C=CC=C2C(=O)N(CCCOC(C)C)C(=O)C(C#N)=C2C)c(C)c(C#N)c1=O` [reference compound] were, in that order, 146 g/L, 231 g/L and “negative”.
For `CCCC[N+](CCCC)(CCCC)CCCC.COCCN1C(=O)C(=CC=Cc2c(C)c(C#N)c(=O)n(CCOC)c2[O-])C(C)=C(C#N)C1=O` [reference compound], in data set [2], the “50° C. Test” value is “negative”.
Take `CCCCC[N+](CCCCC)(CCCCC)CCCCC.CCn1c([O-])c(C=CC=C2C(=O)N(CCCOC(C)C)C(=O)C(C#N)=C2C)c(C)c(C#N)c1=O` [reference compound]: in data set [1], the “Solubility (g/l) EtOH” value is 45 g/L and the “Solubility (g/l) MEK” value is 32 g/L. The “50° C. Test” value in data set [2] is on record as “negative”.
For `CC1=C(C#N)C(=O)N(C(C)C)C(=O)C1=CC=Cc1c(C)c(C#N)c(=O)n(C(C)C)c1[O-].CCCC[N+](CCCC)(CCCC)CCCC` [i-propyl, i-propyl, tetrabutyl-ammonium], the “50° C. Test” value in data set [2] is listed as “positive”.
